For one series, the target named is T1, rat androgen receptor (Rattus norvegicus, UniProt P15207).
T1 construct: The cytosol fraction obtained in the step (1) was adjusted to a protein concentration of 1 mg/ml and used as a rat androgen receptor solution; from tissue; host or cells: rat ventral prostate gland cytosol fraction (male Wistar rats, castrated)
T1 sequence (P15207 1-902): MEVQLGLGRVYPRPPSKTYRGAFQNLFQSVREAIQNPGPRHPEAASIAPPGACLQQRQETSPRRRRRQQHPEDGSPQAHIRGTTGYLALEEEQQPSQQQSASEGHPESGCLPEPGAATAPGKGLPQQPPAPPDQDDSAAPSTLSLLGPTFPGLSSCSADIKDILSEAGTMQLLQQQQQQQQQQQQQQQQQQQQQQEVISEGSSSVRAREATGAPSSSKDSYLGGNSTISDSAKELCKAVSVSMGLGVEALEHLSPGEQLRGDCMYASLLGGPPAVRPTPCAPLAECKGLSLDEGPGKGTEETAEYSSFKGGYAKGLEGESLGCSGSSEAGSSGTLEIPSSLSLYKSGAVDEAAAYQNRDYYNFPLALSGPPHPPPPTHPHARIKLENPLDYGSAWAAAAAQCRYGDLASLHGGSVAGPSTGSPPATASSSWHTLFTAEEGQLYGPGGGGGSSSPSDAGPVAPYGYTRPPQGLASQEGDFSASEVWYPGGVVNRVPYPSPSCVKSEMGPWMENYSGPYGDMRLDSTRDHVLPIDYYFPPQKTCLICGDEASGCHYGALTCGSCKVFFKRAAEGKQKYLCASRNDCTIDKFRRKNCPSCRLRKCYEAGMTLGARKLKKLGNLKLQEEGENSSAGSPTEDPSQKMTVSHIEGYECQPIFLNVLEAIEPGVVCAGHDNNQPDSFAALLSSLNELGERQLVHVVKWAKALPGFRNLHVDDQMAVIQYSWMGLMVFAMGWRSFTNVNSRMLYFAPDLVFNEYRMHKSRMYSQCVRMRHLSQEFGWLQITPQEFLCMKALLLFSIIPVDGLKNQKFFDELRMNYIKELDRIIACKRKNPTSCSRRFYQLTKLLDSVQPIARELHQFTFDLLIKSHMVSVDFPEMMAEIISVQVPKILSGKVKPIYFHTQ
Description: biochemical. To be noted: 3H-mibolerone 1 nM, rat prostate cytosol; Ki calculated from IC50 by Cheng and Prusoff; read-out: Binding activity for rat androgen receptor (Ki = nM).

SMILES strings stand for the structures.

As usually defined, the melting point is the temperature, or range, at which the solid turns liquid. `C[C@@H]1CN(C(=O)NC(C)(C)c2ccccc2)[C@@H](C)CN1c1ccc(C#N)c(C(F)(F)F)c1` (relative stereo) returned a melting point of 152.5 to 153.5 °C. By Ki is commonly meant the equilibrium dissociation constant of an inhibitor or competing ligand from its target. Take `C[C@@H]1CN(c2ccc(C#N)c(C(F)(F)F)c2)[C@@H](C)CN1C(=O)Nc1ccnc(N)n1` [Example 21, (2R,5S)-N-(2-Amino-pyrimidin-4-yl)-4-(4-cyano-3-trifluoromethylphenyl)-2,5-dimethylpiperazine-1-carboxamide]: on rat androgen receptor, the Ki is 1.81 nM. The same measure, in the same setting: the same measure for `C[C@@H]1CN(c2ccc(C#N)c(C(F)(F)F)c2)[C@@H](C)CN1C(=O)Nc1ccnc(Br)c1` [Example 6-1, (2R,5S)-N-(2-Bromo-4-pyridyl)-4-(4-cyano-3-trifluoromethylphenyl)-2,5-dimethylpiperazine-1-carboxamide]: 7.56 nM. On to `C[C@@H]1CN(C(=O)Nc2ccnc(N)c2)[C@@H](C)CN1c1ccc(C#N)c(C(F)(F)F)c1` (racemic), for which the melting point lay within 208 to 211 °C.

`C[C@@H]1CN(c2ccc(C#N)c(C(F)(F)F)c2)[C@@H](C)CN1C(=O)Nc1ccnc(F)c1` [Example 18-8, (2R,5S)-4-(4-Cyano-3-trifluoromethylphenyl)-N-(2-fluoro-4-pyridyl)-2,5-dimethylpiperazine-1-carboxamide]: the Ki at rat androgen receptor is 15.6 nM. As to `C[C@@H]1CN(c2ccc(C#N)c(C(F)(F)F)c2)[C@@H](C)CN1C(=O)N1CC[S+]([O-])CC1` (relative stereo), the melting point lay in the range of 173 to 175 °C. Same read-out and setting: the same measure for `C[C@@H]1CN(c2ccc(C#N)c(C(F)(F)F)c2)[C@@H](C)CN1C(=O)Nc1ccc(F)nc1`: 163 to 165 °C; for `CC(=O)Nc1nccc(NC(=O)N2C[C@@H](C)N(c3ccc(C#N)c(C(F)(F)F)c3)C[C@@H]2C)n1` (racemic): 191 to 193 °C; for `CC1(C)CN(c2ccc(C#N)c(C(F)(F)F)c2)CN1C(=O)Nc1ccc(F)cc1`: 199 to 200 °C. Consider `C[C@@H]1CN(c2ccc(C#N)c(C(F)(F)F)c2)[C@@H](C)CN1C(=O)Nc1ccc(C#N)nc1` [Example 18-7, (2R,5S)-N-(6-Cyano-3-pyridyl)-4-(4-cyano-3-trifluoromethylphenyl)-2,5-dimethylpiperazine-1-carboxamide], for which the melting point lay in the range of 220 to 222 °C. The Ki on rat androgen receptor was 6.66 nM.

Turning to `COc1ccc(NC(=O)N2C[C@H](C)N(c3ccc(C#N)c(C(F)(F)F)c3)C[C@H]2C)cn1` [Example 6-13, (2R,5S)-4-(4-Cyano-3-trifluoromethylphenyl)-N-(6-methoxy-3-pyridyl)-2,5-dimethylpiperazine-1-carboxamide], the melting point was in the range of 184 to 185 °C. Besides, the Ki on rat androgen receptor is 3.58 nM. Regarding `CNC(=O)c1cc(NC(=O)N2C[C@H](C)N(c3ccc(C#N)c(C(F)(F)F)c3)C[C@H]2C)ccn1` [Example 13-1, (2R,5S)-4-(4-Cyano-3-trifluoromethylphenyl)-2,5-dimethyl-N-(2-methylcarbamoyl-4-pyridyl)piperazine-1-carboxamide], at rat androgen receptor, the Ki is 1.91 nM. Turning to `C[C@@H]1CN(C(=O)Nc2ccc(F)cc2)[C@@H](C)CN1c1ccc(C#N)c(C(F)(F)F)c1` (relative stereo), the melting point lay in the range of 200 to 203 °C.

(Values after patent US6673799B1, “Cyanophenyl derivative” (priority 1998, dated 2004).)
